Measured values from EP2265631B1, “NOVEL ANTIMICROBIAL PEPTIDES AND THEIR APPLICATION” (Ustav Organicke Chemie a Biochemie Akademie Ved Ceske …, priority 2008, dated 2009).
Ends that are not written are not given here. Peptide text beside a SMILES is read from it.

Key:
rat red blood cells = assay: Determination of hemolytic activity; format: cell-based; settings: rat red blood cells (5%), 1 h at 37°C, peptides 1-200 µM
Description: The peptides in the concentration (1-200 µM) were incubated with rat red blood cells (5%) for 1 h at 37°C in a physiological solution at a final volume of 0.2 ml. The samples were then centrifuged for 5 min at 250 g, and the absorbance of the supernatant was determined at 540 nm. Supernatants of red blood cells suspended in physiological solution and in 0.2% TRITON X100 in physiological solution served as controls for zero hemolysis (blank) and 100% hemolysis, respectively. Table 3. Antimicrobial and hemolytic activity of melectin (I) and its synthetic analogs of formulas II/1 to II/18

Escherichia coli = assay: Determination of antimicrobial activity (MIC, bacterial growth in LB broth); format: cell-based; settings: minimum inhibitory concentration (MIC) per method, 37°C, 20 h, read-out: Antimicrobial activity IC50 [µM] E. c.
Description: (§1) Antimicrobial activity was determined as a quantitative minimum inhibitory concentration (MIC) by observing bacterial growth in the presence of different concentrations of tested peptides. Mid-exponential phase bacteria were added to the solutions of the tested antimicrobial peptide at different concentrations (0.5 to 100 µM) in LB broth in multi-well plates. The plates were incubated at 37°C for 20 h while being continuously shaken in a Bioscreen C instrument (Finland). The absorbance was measured at 540 nm every 15 min and each peptide was tested at least 3 times in duplicate. 1.2.10^3 - 7.5.10^3 CFU of bacteria was routinely used in the experiments. Tetracycline in a concentration range of 0.1 - 50 µM was tested as a standard.

Pseudomonnas aeruginosa = assay: as above; format: cell-based; settings: minimum inhibitory concentration (MIC) per method, 37°C, 20 h, read-out: Antimicrobial activity IC50 [µM] P.a.
Description: as §1

Staphylococcus aureus = assay: as above; format: cell-based; settings: minimum inhibitory concentration (MIC) per method, 37°C, 20 h, read-out: Antimicrobial activity IC50 [µM] S.a.
Description: as §1

Bacilus subtilis = assay: as above; format: cell-based; settings: minimum inhibitory concentration (MIC) per method, 37°C, 20 h, read-out: Antimicrobial activity IC50 [µM] B.s.
Description: as §1

[1] = system: human cervix carcinoma HeLa S3; assay: Cytostatic effect on cancer cells (e.g. MTT test); format: cell-based; settings: 24-72 h incubation, 50% decrease in cell viability; read-out: IC50 [µM] HeLaS3
Description: (§2) Tumor cells in suspension or adherent cells were incubated under standard conditions in appropriate culture media for 24-72 h with the peptides in 2-40 micromolar concentration. After this time, the number of living cells was determined using routine tests, e.g. MTT test. The IC50 was determined as concentration of peptides, which caused 50% decrease in cell viability in comparison to controls (no peptide present). In preliminary tests mouse lymphocytic leukemia L1210 (CCL 219), CCRF-CEM T lymphoblastoid (human acute lymphoblastic leukemia, CCL 119), human promyelocytic leukemia HL-60 (CCL 240), human cervix carcinoma HeLa S3, rat pheochromocytoma PC12, human colon adenocarcinoma SW480 (CCL-228), and normal rat epithelial cells (IEC-6, CRL-1592) from ATCC (Manassas, VA, USA), were used. […] Table 4. Cytostatic effect of selected peptides on cancer cells

[2] = system: human promyelocytic leukemia HL-60; assay: Cytostatic effect on cancer cells (e.g. MTT test); format: cell-based; settings: 24-72 h incubation, 50% decrease in cell viability
Description: as §2

[3] = system: human colon adenocarcinoma SW480; assay: Cytostatic effect on cancer cells (e.g. MTT test); format: cell-based; settings: 24-72 h incubation, 50% decrease in cell viability
Description: as §2

[4] = system: mouse lymphocytic leukemia L1210; assay: Cytostatic effect on cancer cells (e.g. MTT test); format: cell-based; settings: 24-72 h incubation, 50% decrease in cell viability
Description: as §2

[5] = system: CCRF-CEM T lymphoblastoid; assay: Cytostatic effect on cancer cells (e.g. MTT test); format: cell-based, human; settings: 24-72 h incubation, 50% decrease in cell viability
Description: as §2

Molecule | Hemolytic activity (rat red blood cells) | IC50 (Escherichia coli) | IC50 (Pseudomonnas aeruginosa) | IC50 (Staphylococcus aureus) | IC50 (Bacilus subtilis) | IC50 [1] | IC50 [2] | IC50 [3] | IC50 [4] | IC50 [5]
CC[C@H](C)[C@H](NC(=O)[C@H](CO)NC(=O)[C@H](CC(C)C)NC(=O)[C@H](Cc1ccccc1)NC(=O)CN)C(=O)N[C@@H](CC(C)C)C(=O)N[C@@H](CCCCN)C(=O)N[C@@H](CCCCN)C(=O)N[C@H](C(=O)N[C@@H](CC(C)C)C(=O)N1CCC[C@@H]1C(=O)N[C@@H](CCCCN)C(=O)N[C@H](C(=O)N[C@@H](CCSC)C(=O)N[C@@H](C)C(=O)N[C@@H](Cc1c[nH]cn1)C(=O)N[C@@H](CCSC)C(=O)N[C@@H](CCCCN)C(N)=O)C(C)C)C(C)C [II/15, H-Gly-Phe-Leu-Ser-Ile-Leu-Lys-Lys-Val-Leu-Pro-Lys-Val-Met-Ala-His-Met-Lys-NH2] | »200 µM | 4.2 µM | 100 µM | > 100 µM | 1.7 µM |  |  |  |  | 
CC[C@H](C)[C@H](NC(=O)[C@H](CO)NC(=O)[C@H](CC(C)C)NC(=O)[C@H](Cc1cccc2ccccc12)NC(=O)CN)C(=O)N[C@@H](CC(C)C)C(=O)N[C@@H](CCCCN)C(=O)N[C@@H](CCCCN)C(=O)N[C@H](C(=O)N[C@@H](CC(C)C)C(=O)N1CCC[C@H]1C(=O)N[C@@H](CCCCN)C(=O)N[C@H](C(=O)N[C@@H](CCSC)C(=O)N[C@@H](C)C(=O)N[C@@H](Cc1c[nH]cn1)C(=O)N[C@@H](CCSC)C(=O)N[C@@H](CCCCN)C(N)=O)C(C)C)C(C)C [II/16, H-Gly-1Nal-Leu-Ser-Ile-Leu-Lys-Lys- V al-Leu-Pro-Lys- V al-Met-Ala-His-Met-Lys-NH2] (HELM PEPTIDE1{G.[O=C([C@H](Cc1cccc2ccccc12)N[*:1])[*:2]].L.S.I.L.K.K.V.L.P.K.V.M.A.H.M.K.[am]}$$$$V2.0) | 25 µM | 0.4 µM | 17.3 µM | 2.5 µM | 0.4 µM |  |  |  |  | 
CCCC[C@H](NC(=O)[C@H](Cc1c[nH]cn1)NC(=O)[C@H](C)NC(=O)[C@H](CCCC)NC(=O)[C@@H](NC(=O)[C@H](CCCCN)NC(=O)[C@@H]1CCCN1C(=O)[C@H](CC(C)C)NC(=O)[C@@H](NC(=O)[C@H](CCCCN)NC(=O)[C@H](CCCCN)NC(=O)[C@H](CC(C)C)NC(=O)[C@@H](NC(=O)[C@H](CO)NC(=O)[C@H](CC(C)C)NC(=O)[C@H](Cc1ccccc1)NC(=O)CN)[C@@H](C)CC)C(C)C)C(C)C)C(=O)N[C@@H](CCCCN)C(N)=O [II/18, H-Gly-Phe-Leu-Ser-Ile-Leu-Lys-Lys-Val-Leu-Pro-Lys-Val-Nle-Ala-His-Nle-Lys-NH2] (HELM PEPTIDE1{G.F.L.S.I.L.K.K.V.L.P.K.V.[Nle].A.H.[Nle].K.[am]}$$$$V2.0) |  | 0.75 µM | 17.3 µM | 2.5 µM | 0.2 µM |  |  |  |  | 
CCCC[C@H](NC(=O)[C@H](Cc1cnc[nH]1)NC(=O)[C@H](C)NC(=O)[C@H](CCCC)NC(=O)[C@@H](NC(=O)[C@H](CCCCN)NC(=O)[C@@H]1CCCN1C(=O)[C@H](CC(C)C)NC(=O)[C@@H](NC(=O)[C@H](CCCCN)NC(=O)[C@H](CCCCN)NC(=O)[C@H](CC(C)C)NC(=O)[C@@H](NC(=O)[C@H](CO)NC(=O)[C@H](CC(C)C)NC(=O)[C@H](Cc1ccccc1)NC(=O)CN)[C@@H](C)CC)C(C)C)C(C)C)C(=O)N[C@@H](CCCCN)C(N)=O [II/18, H-Gly-Phe-Leu-Ser-Ile-Leu-Lys-Lys-Val-Leu-Pro-Lys-Val-Nle-Ala-His-Nle-Lys-NH2] (HELM PEPTIDE1{G.F.L.S.I.L.K.K.V.L.P.K.V.[Nle].A.H.[Nle].K.[am]}$$$$V2.0) | 50 µM |  |  |  |  |  |  |  |  | 
GFLSILKKVLGKVMAHMK-NH2 [II/3, H-Gly-Phe-Leu-Ser-lle-Leu-Lys-Lys-Val-Leu-Gly-Lys-Val-Met-Ala-His-Met-Lys-NH2] | 41.4 µM | 1.8 µM | 14.4 µM | 4.3 µM | 1.3 µM |  |  |  |  | 
GFLSILKKVLKVMAHMK-NH2 [II/8, H-Gly-Phe-Leu-Ser-Ile-Leu-Lys-Lys-Val-Leu-... -Lys-Val-Met-Ala-His-Met-Lys-NH2] | 22.9 µM | 1.8 µM | 27.5 µM | 5 µM | 0.9 µM |  |  |  |  | 
H-FLSILKKVLPKVMAHMK-NH2 [II/9, H-Phe-Leu-Ser-Ile-Leu-Lys-Lys-Val-Leu-Pro-Lys-Val-Met-Ala-His-Met-Lys-NH2] | >200 µM | 9.08 µM | 62.1 µM | 38.8 µM | 1.2 µM |  |  |  |  | 
H-GFLSILKKVGPKVMAHMK-NH2 [II/14, H-Gly-Phe-Leu-Ser-Ile-Leu-Lys-Lys-Val-Gly-Pro-Lys-Val-Met-Ala-His-Met-Lys-NH2] | »200 µM | 22.5 µM | 80 µM | 80 µM | 1.4 µM |  |  |  |  | 
H-GFLSILKKVL-NH2 [II/13, H-Gly-Phe-Leu-Ser-Ile-Leu-Lys-Lys-Val-Leu-NH2] | >100 µM | 9.1 µM | 58.7 µM | 10.9 µM | 2.9 µM |  |  |  |  | 
H-GFLSILKKVLAKVMAHMK-NH2 [II/2, H-Gly-Phe-Leu-Ser-Ile-Leu-Lys-Lys-Val-Leu-Ala-Lys-Val-Met-Ala-His-Met-Lys-NH2] | 29.7 µM | 1.6 µM | 18.3 µM | 4.7 µM | 1.3 µM |  |  |  |  | 
H-GFLSILKKVLKKVMAHMK-NH2 [II/1, H-Gly-Phe-Leu-Ser-Ile-Leu-Lys-Lys-Val-Leu-Lys-Lys-Val-Met-Ala-His-Met-Lys-NH2] | 27.3 µM | 1.8 µM | 25.3 µM | 13.3 µM | 1.4 µM |  |  |  |  | 
H-GFLSILKKVLP-NH2 [II/12, H-Gly-Phe-Leu-Ser-Ile-Leu-Lys-Lys-Val-Leu-Pro-NH2] | »200 µM | 78 µM | > 100 µM | > 100 µM | 13 µM |  |  |  |  | 
H-GFLSILKKVLPKVLAHLK-NH2 [II/5, H-Gly-Phe-Leu-Ser-Ile-Leu-Lys-Lys-Val-Leu-Pro-Lys-Val-Leu-Ala-His-Leu-Lys-NH2] | 43.7 µM | 1.2 µM | 20 µM | 5 µM | 0.8 µM |  |  |  |  | 
H-GFLSILKKVLPKVMAKMK-NH2 [II/4, H-Gly-Phe-Leu-Ser-Ile-Leu-Lys-Lys-Val-Leu-Pro-Lys-Val-Met-Ala-Lys-Met-Lys-NH2] | >100 µM | 2.1 µM | 33.6 µM | 16.8 µM | 0.7 µM |  |  |  |  | 
H-GFLSILKKVLPKVMHAMK-NH2 [II/6, H-Gly-Phe-Leu-Ser-Ile-Leu-Lys-Lys-Val-Leu-Pro-Lys-Val-Met-His-Ala-Met-Lys-NH2] | 150 µM | 2.1 µM | 35.1 µM | 9.1 µM | 1.1 µM |  |  |  |  | 
H-GFLSILKKVLPKVMKAMK-NH2 [II/7, H-Gly-Phe-Leu-Ser-Ile-Leu-Lys-Lys-Val-Leu-Pro-Lys-Val-Met-Lys-Ala-Met-Lys-NH2] | 70 µM | 1.5 µM | 31.7 µM | 7.7 µM | 0.8 µM | 9.6 µM | 9.1 µM | 12.5 µM | 6.9 µM | 8.8 µM
H-GLSILKKVLKKVMAHMK-NH2 [II/17, H-Gly-...-Leu-Ser-Ile-Leu-Lys-Lys-Val-Leu-Lys-Lys-Val-Met-Ala-His-Met-Lys-NH2] | »200 µM |  |  |  |  |  |  |  |  | 
H-LSILKKVLPKVMAHMK-NH2 [II/10, H-Leu-Ser-Ile-Leu-Lys-Lys- Val-Leu-Pro-Lys-Val-Met-Ala-His-Met-Lys-NH2] | »200 µM | 76.2 µM | > 100 µM | > 100 µM | 7.9 µM |  |  |  |  | 
H-SILKKVLPKVMAHMK-NH2 [II/11, H-Ser-Ile-Leu-Lys-Lys-Val-Leu-Pro-Lys-Val-Met-Ala-His-Met-Lys-NH2] | »200 µM | > 100 µM | > 100 µM | > 100 µM | 21.8 µM |  |  |  |  | 
